According to patent US20120148510A1, “Compositions and Methods for Improving the Appearance of Facial Pores” (priority 2010, published 2012):
“And” between values parts separate entries of the source, which are not always exact repeats. Equal entries are not always repeated.

Experiments:
facial pores = assay: 9 week in vivo split face study, Pore Area Fraction by image analysis; set-up: species or system human; details: vehicle + 5% Hexyldecanol, twice daily topical on face, 8 weeks, upper cheek area, FIG. 1
Description: A 9 week in vivo study was conducted using a round robin, vehicle controlled, split face design including a 1 week normalization period with 330 subjects.
Treatment Regimen—The regimen begins with a one week washout period. Each morning the subject is to wash their face with a suitable cleanser (e.g., Olay Natural Science Deep Purify Cleanser, available from The Procter & Gamble Company, Cincinnati, Ohio), gently dry with a towel, apply a stock moisturizer (e.g., Vehicle as described in Table 2 with 3% glycerine, no panthenol, and 0.3% disodium EDTA) to the appropriate side of the face, wait 5 minutes, and then apply a UV blocking lotion (e.g., Olay Complete All Day Moisturizing Lotion SPF 15, available from The Procter & Gamble Company, Cincinnati, Ohio). […]
Images of the facial treatment sites are captured at baseline (week 0), and after 4 and 8 weeks of treatment and analyzed for changes to facial pores. […]
The region of interest (ROI), in this case the upper cheek area, was marked manually based on 12 predefined facial landmarks around the cheek—for example, corners of the eye, bridge of the nose, corners of the mouth. The degree of facial pores in the ROI were quantified objectively using image analysis algorithms based on an Optimus software platform. […]

IL-1 beta = assay: IL-1 inhibition assay (ICAM-1 promoter/luciferase reporter in ECV304 cells); type: cell-based, Human; details: 5% concentration of hexyldecanol diluted to 0.05%; four replicates; 10 U/ml IL-1 beta, 4 hours
Description: A. IL-1 Inhibition Assay Protocol
One vial of Human ECV304 cells stably transfected with human ICAM-1 promoter/luciferase reporter construct (pGL3 basic plasmid) and CMV-βgal/RSV-neo plasmid DNA (clone E1.3-22) is placed in a 75 cm flask with 15 ml of complete maintenance media defined as follows: M199 (Gibco, cat #11150-059, 1× liquid, 500 ml containing Earle's salts, Na bicarbonate, and L-glutamine), 10% FBS (certified, heat-inactivated from Gibco, cat #10082-147), 10 ug/ml gentamicin (Gibco, cat #15710-015—10 mg/ml soln (1000×), and 250 μg/ml geneticin antibiotic (active G418 from Gibco, cat 10131-035-50 mg/ml soln).
When cells are 85-90% confluent remove media. Dilute (10×) trypsin-EDTA (Gibco cat #15400-039) to (1×) with HBSS and add 3 ml of (1×) trypsin-EDTA to flask and rinse. Remove trypsin and add a fresh 3 ml/flask and incubate 3-4 min. Strike end of flask to detach cells, and then add 6 ml of complete maintenance medium thoroughly washing the flask and place liquid in a conical tube. Then rinse each flask with an additional 3 ml of maintenance media. Spin tube at 200×g (approx 900 rpm for centrifuge in 3N066B) for 7 minutes. Aspirate supernatant and resuspend cells in 10 ml of maintenance media. Place 10 ul of cell suspension into a hemocytometer and count cells in 5 squares. Use following equation—total# of cells counted ×dilution×104/# of squares counted=cells/ml. […]

[1] = system: HAS-2 gene (Hyaluronic Acid Synthase-2 gene); assay: Hyaluronic Acid (HA) Synthase expression, keratinocyte culture, Affymetrix GeneChip microarray; type: cell-based; details: 10 micro molar hexyldecanol; human telomerized keratinocytes; 6 hours exposure; six GeneChips; p-value=0.0366
Description: B. Hyaluronic Acid (HA) Synthase Expression
Individual experiments (referred to as batches) are generally comprised of 60 Affymetrix GeneChips® (referred to as “instances”) containing 6 vehicle control samples, 2 positive control samples and 52 individual test material samples. Duplication of test materials is performed across batches. In vitro testing is performed in 6-well plates to provide sufficient RNA for GeneChip® analysis (2-4 ug total RNA yield/well). Human telomerized keratinocytes are grown in EpiLife® media with 1× Human Keratinocyte Growth Supplement (Invitrogen) on collagen I coated cell culture flasks and plates (Becton Dickinson). Cells are seeded into 6-well plates at 20,000 cells/cm2 24 hours before chemical exposure. At t=−24 hours cells are trypsinized from T-75 flasks and plated into 6-well plates in basal growth medium. At t=0 media is removed and replaced with the appropriate dosing solution as per the experimental design. Dosing solutions are prepared the previous day in sterile 4 ml Falcon snap cap tubes. After 6 hours of chemical exposure cells are viewed and imaged. […]
2. Transcriptional Screening—RNA Analyzed with Gene Chips […]
Data quality was determined using a variety of statistical measures, including t-tests, scatter biplots, and principal components analysis, depending upon the source and character of the data. […]

CCCCCCCCC(CO)CCCCCC (stereo not drawn) [Hexyldecanol, 2-hexyldecan-1-ol]
reduction of Pore Area Fraction versus vehicle control (facial pores): significantly (p<=0.10) reducing Pore Area Fraction better than the control
reduction of IL-1 stimulatory activity (IL-1 beta): 24% and 18% (2×) and 21%
HAS-2 gene transcriptional expression level, average fold change [1]: 1.336 fold change
